The results in this text go back to patent US20060128695A1, “Cyclic nucleotide phosphodiesterase inhibitors, preparation and uses” (NEURO3D, priority 2002, published 2006).

Usually IC50 stands for the concentration at which inhibition is half-maximal. The term inhibition denotes the relative decrease from the control value, in per cent.

One assay deals with T1, PDE2 (Bos taurus, UniProt P14099).
T1 construct: PDE2 was prepared from bovine endothelial cells by the same methods; endogenous in cells; host or cells: bovine endothelial cells
T1 sequence (P14099 1-921): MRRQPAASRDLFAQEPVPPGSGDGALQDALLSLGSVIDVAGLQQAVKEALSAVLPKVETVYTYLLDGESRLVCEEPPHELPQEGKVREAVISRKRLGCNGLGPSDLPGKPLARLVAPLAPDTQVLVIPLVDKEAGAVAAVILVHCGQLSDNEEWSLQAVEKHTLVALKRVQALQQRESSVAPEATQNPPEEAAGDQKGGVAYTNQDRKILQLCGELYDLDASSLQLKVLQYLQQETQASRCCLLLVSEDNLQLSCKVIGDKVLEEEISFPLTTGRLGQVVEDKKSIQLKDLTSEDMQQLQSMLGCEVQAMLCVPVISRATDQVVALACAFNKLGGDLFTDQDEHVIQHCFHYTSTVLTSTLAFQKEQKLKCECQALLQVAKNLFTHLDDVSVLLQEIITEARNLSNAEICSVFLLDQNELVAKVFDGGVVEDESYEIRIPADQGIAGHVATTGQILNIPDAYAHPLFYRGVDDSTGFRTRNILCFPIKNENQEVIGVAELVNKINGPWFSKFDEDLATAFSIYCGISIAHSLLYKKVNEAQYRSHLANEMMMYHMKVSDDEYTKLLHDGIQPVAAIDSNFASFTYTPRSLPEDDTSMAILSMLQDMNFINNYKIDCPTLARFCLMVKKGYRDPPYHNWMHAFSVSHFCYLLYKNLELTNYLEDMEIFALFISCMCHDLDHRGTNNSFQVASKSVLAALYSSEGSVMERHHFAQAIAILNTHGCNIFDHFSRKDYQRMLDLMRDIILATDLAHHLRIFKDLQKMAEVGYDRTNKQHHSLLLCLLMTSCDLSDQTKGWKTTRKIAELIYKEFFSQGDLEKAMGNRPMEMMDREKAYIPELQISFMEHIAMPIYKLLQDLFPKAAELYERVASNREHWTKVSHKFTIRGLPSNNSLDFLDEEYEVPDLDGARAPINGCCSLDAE
In words: Inhibition of PDE2, radioenzymatic phosphodiesterase assay. It counts as biochemical, bovine.
Settings: not given
Compound `COc1cc2c(c(Br)c1OC)C(c1cccc(C#N)c1)=NCC(=O)N2C` [Compound 24b, 3-(6-bromo-7,8-dimethoxy-1-methyl-2-oxo-2,3-dihydro-1H-1,4-benzodiazepin-5-yl)benzonitrile] displayed an IC50 of 3.3 µM.
The same measure, in the same setting: to `COc1ccc2c(c1)NC(=O)CN=C2c1cccc(C#N)c1` [Compound 28a, 3-(8-methoxy-2-oxo-2,3-dihydro-1H-1,4-benzodiazepin-5-yl)benzonitrile] belongs 65 µM; to `COc1cccc2c1C(c1cccc(C#N)c1)=NCC(=O)N2` [Compound 28b, 3-(6-methoxy-2-oxo-2,3-dihydro-1H-1,4-benzodiazepin-5-yl)benzonitrile], 88 µM; to `COc1ccc2c(c1)N(C)C(=O)CN=C2c1cccc(C#N)c1` [Compound 29a, 3-(8-methoxy-1-methyl-2-oxo-2,3-dihydro-1H-1,4-benzodiazepin-5-yl)benzonitrile], 35 µM.
Still for that read-out and setting: to `COC(=O)c1cccc(C2=NCC(=O)N(C)c3cc(OC)c(OC)cc32)c1` [Compound 34a, 3-(7,8-dimethoxy-1-methyl-2-oxo-2,3-dihydro-1H-1,4-benzodiazepin-5-yl)methyl benzoate] belongs 2.6 µM.
Compound `COc1cc2c(cc1OC)N(C)C(=O)CN=C2c1cccc(C(=O)NCc2ccccc2)c1` [Compound 36b, N-benzyl-3-(7,8-dimethoxy-1-methyl-2-oxo-2,3-dihydro-1H-1,4-benzodiazepin-5-yl) benzamide] had an IC50 of 3.1 µM.
Same read-out and setting: to `COc1cc2c(cc1OC)N(C)C(=O)CN=C2c1cccc(C(=O)NCCCc2ccccc2)c1` [Compound 36f, 3-(7,8-dimethoxy-1-methyl-2-oxo-2,3-dihydro-1H-1,4-benzodiazepin-5-yl)-N-(3-phenylpropyl)benzamide] belongs 2.8 µM.

The same assay, now with this note: 1 μM cyclic AMP; PDE2 from bovine endothelial cells; read-out: PDE2 IC50.
As to “Tert-butyl-3-[5-(cyanophenyl)-(7,8-dimethoxy-1-methyl-2-oxo-2,3-dihydro-1H-1,4-benzodiazepin-9-yl)phenyl]prop-2-ynylcarbamate [Compound 25c]”, the IC50 stood at 3.4 µM.
With “tert-butyl-3-[5-(cyanophenyl)-(7,8-dimethoxy-1-methyl-2-oxo-2,3-dihydro-1H-1,4-benzodiazepin-6-yl)phenyl]prop-2-ynylcarbamate [Compound 25e]”, the IC50 came out at 5 µM.

The assay is the same for the next values; noted with them: 10 μM test compound; PDE2 from bovine endothelial cells.
For `COc1cc2c(cc1OC)N(C)C(=O)CN=C2c1cccc(C(=O)N2CCN(Cc3ccccc3)CC2)c1` [Compound 36e, 5-{3-[(4-benzylpyperazin-1-yl)carbonyl]phenyl}7,8-dimethoxy-1-methyl-2-oxo-2,3-dihydro-1H-1,4-benzodiazepin-2-one], the “PDE2 percentage inhibition at 10 μM” value was 27%.
The same measure, in the same setting: then “Methyl (2E)-3-[5-(cyanophenyl)-7,8-dimethoxy-1-methyl-2-oxo-2,3-dihydro-1H-1,4-benzodiazepin-9-yl)phenyl]acrylate [Compound 25d]”, with 2.4%.
On the same count and under the same terms, to “[6-(3-aminoethynyl)-7,8-dimethoxy-1-methyl-2-oxo-2,3-dihydro-1H-1,4-benzodiazepin-5-yl]benzonitrile [Compound 25g]” belongs 14.5%; to “[9-(3-aminoethynyl)-7,8-dimethoxy-1-methyl-2-oxo-2,3-dihydro-1H-1,4-benzodiazepin-5-yl]benzonitrile [Compound 25f]”, 0%.

The same assay, now with this note: 10 μM test compound; PDE2 from bovine endothelial cells; read-out: PDE2 percentage inhibition at 10 μM.
In the case of `COc1cc2c(cc1OC)N(C)C(=O)CN=C2c1cccc(C(=O)O)c1` [Compound 35a, 3-(7,8-dimethoxy-1-methyl-2-oxo-2,3-dihydro-1H-1,4-benzodiazepin-5-yl)benzoic acid], the inhibition at 10 µM was 26%.
Consider `COc1cc2c(cc1OC)N(C)C(=O)CN=C2c1cccc(C(=O)NC(C)C)c1` [Compound 36a, 3-(7,8-dimethoxy-1-methyl-2-oxo-2,3-dihydro-1H-1,4-benzodiazepin-5-yl)N-isopropylbenzamide], for which the inhibition at 10 µM was found to be 75.9%.
As for `COc1cc2c(cc1OC)N(C)C(=O)CN=C2c1cccc(C(=O)N(C)C)c1` [Compound 36d, 3-(7,8-dimethoxy-1-methyl-2-oxo-2,3-dihydro-1H-1,4-benzodiazepin-5-yl)-N,N-dimethylbenzamide], the inhibition at 10 µM amounted to 17%.

Still in this assay, the particulars now being: read-out: PDE2 percentage inhibition at 10 μM.
As to `COc1cc2c(cc1O)C(c1cccc(C#N)c1)=NCC(=O)N2` [Compound 22b, 3-(7-hydroxy-8-methoxy-2-oxo-2,3-dihydro-1H-1,4-benzodiazepin-5-yl)benzonitrile], the inhibition at 10 µM stood at 3.8%.
On the same count and under the same terms, then `COc1cc2c(c(Br)c1O)C(c1cccc(C#N)c1)=NCC(=O)N2` [Compound 23b, 3-(6-bromo-7-hydroxy-8-methoxy-2-oxo-2,3-dihydro-1H-1,4-benzodiazepin-5-yl)benzonitrile], with 20.1%; and `COc1cc2c(c(-c3ccccc3)c1OC)N(C)C(=O)CN=C2c1cccc(C#N)c1` [Compound 25a, 3-(7,8-dimethoxy-1-methyl-2-oxo-9-phenyl-2,3-dihydro-1H-1,4-benzodiazepin-5-yl)benzonitrile], with 0%.
Same read-out and setting: then `COc1cc2c(c(-c3ccccc3)c1OC)C(c1cccc(C#N)c1)=NCC(=O)N2C` [Compound 25b, 3-(7,8-dimethoxy-1-methyl-2-oxo-6-phenyl-2,3-dihydro-1H-1,4-benzodiazepin-5-yl)benzonitrile], with 22.9%; and `COc1ccc2c(c1)NC(=O)CN=C2c1cccc(C#N)c1` [Compound 28a, 3-(8-methoxy-2-oxo-2,3-dihydro-1H-1,4-benzodiazepin-5-yl)benzonitrile], with 52.5%.
On the same count and under the same terms, to `COc1cccc2c1C(c1cccc(C#N)c1)=NCC(=O)N2` [Compound 28b, 3-(6-methoxy-2-oxo-2,3-dihydro-1H-1,4-benzodiazepin-5-yl)benzonitrile] belongs 34.5%.
On to `COc1ccc2c(c1)C(c1cccc(C#N)c1)=NCC(=O)N2` [Compound 28c, 3-(7-methoxy-2-oxo-2,3-dihydro-1H-1,4-benzodiazepin-5-yl)benzonitrile], for which the inhibition at 10 µM was determined as 46.5%.
Same read-out and setting: to `COc1cccc2c1C(c1ccccc1)=NCC(=O)N2` [Compound 28d, 6-methoxy-5-phenyl-1,3-dihydro-2H-1,4-benzodiazepin-2-one] belongs 4.7%; to `COc1ccc2c(c1)C(c1ccccc1)=NCC(=O)N2` [Compound 28e, 7-methoxy-5-phenyl-1,3-dihydro-2H-1,4-benzodiazepin-2-one], 8.8%.
Still for that read-out and setting: then `COc1cc2c(c(Br)c1OC)NC(=O)CN=C2c1ccccc1` [Compound 28f, 9-bromo-7,8-dimethoxy-5-phenyl-1,3-dihydro-2H-1,4-benzodiazepin-2-one], with 13.5%; and `COc1cc2c(cc1OC)N(C)C(=O)CN=C2c1cccc(C(=O)NCCCCCC(N)=O)c1` [Compound 36c, N-(6-amino-6-oxohexyl)-3-(7,8-dimethoxy-1-methyl-2-oxo-2,3-dihydro-1H-1,4-benzodiazepin-5-yl)benzamide], with 46%.
